Reference: patent US6660501B2, “Production of proteins by cell culture” (Lonza Group, AG, priority 1986, dated 2003)

Legend:
hybridoma cell line D = experiment: Harvest antibody titre, hybridoma cell line D; assay type: cell-based; conditions: SFM + 10% FCS, control 29
Description: (§1) Hybridoma cells were grown in suspension culture in either serum-free medium (see Example 1) or in DMEM supplemented with 10% (v/v), heat inactivated foetal calf serum. Cells were cultured in either roller bottles or in shake-flasks, as in Example 1. Sodium butyrate was added to cultures immediately after inoculation.

[1] = system: mouse C127 cell line producing recombinant tissue plasminogen activator (tPA); experiment: Production of recombinant tPA from C127 cell line on microcarriers (fibrin-agar method; nuclei count); assay type: cell-based; conditions: for CONCENTRATION OF TPA PER ML: control 100
Description: A mouse C127 cell line producing recombinant tissue plasminogen activator (tPA) was cultured on microcarriers (gelibeads, K. C. Biologicals) in spinner vessels (Bellco). The growth medium was DMEM supplemented with 10% foetal calf serum. The concentration of microcarriers were 5 grams (dryweight) per liter of medium. Calls were inoculated at a density of 1×10^5 cells per ml.
After the cells had grown to confluency on the surface of the microcarriers, growth medium was aspirated and replaced with a protein-free DMEM-based maintenance medium containing the butyrate. Control cultures received no butyrate.
Cell density was determined by counting nuclei which were released from cells by hypotonic lysis (ref. Absher, in “Tissue Culture Methods and Applications”, Kruse & Patterson. Academic Press 1973). The concentration of tPA in the supernatant was assayed using the fibrin-agar method.

hybridoma cell line E = experiment: Harvest antibody titre, hybridoma cell line E; assay type: cell-based; conditions: SFM, control 46
Description: as §1

hybridoma cell line A = experiment: Harvest antibody titre, hybridoma cell line A; assay type: cell-based; conditions: SFM, control 28
Description: as §1

HeLa-cell cultures = conditions: cited from earlier work
[2] = system: hybridoma cells (as Example 1, NB1/19); experiment: Butyrate-enhanced antibody production in hybridoma cells cultured in serum supplemented medium; assay type: cell-based, mouse; conditions: DMEM + 10% foetal calf serum
Description: (§2) The IgM secreting mouse hybridoma cell line NB1/19 was grown in suspension culture in Dulbeccos Modified Eagles Minimum (DMEM) serum-free medium containing albumin, insulin, transferrin, gentamycin and other additives as required to cultivate cells in suspension culture. The NB1/19 cell line produces a mouse monoclonal antibody having specificity for an antigenic determinant of human B-type blood cells. The preparation of this call line is described in detail in the specification of British Patent GB 2097425B. It will be appreciated, however, that other hybridoma cell lines may be used in place of this particular cell line as appropriate in this and other examples.
The cells were grown to a viable cell density of 1.0-1.5×10^6 cells/ml. Viable cell density was determined by counting the number of cells which exclude trypan blue, a staining agent. A sample of the suspension culture was diluted in a serum-free medium to a density of about 1.3×10^5 cells/ml. […]
(§3) The shake flasks were gassed with 5% CO2-95% air, and sealed and incubated with shaking at 37° C. for up to 207 hours. (Table 1). Samples ([…]) were removed from the culture by pipette. 100 μl was used to determine viable cell count and the reminder centrifuged at 300×g for five minutes. Supernatants were stored at −20° C. prior to antibody determination by enzyme linked immunosorbent assay (ELISA).
The protocol for this experiment is similar to that outlined in Example 1, except that the cells were cultured in Dulbeccos Modified Eagles Minimum medium supplemented with 10% foetal calf serum.

hybridoma cell line J = experiment: Harvest antibody titre, hybridoma cell line J; assay type: cell-based
Description: as §1

NT1/19 cells = experiment: Effect of varying alkanoates on antibody production from hybridoma cells; assay type: cell-based; conditions: for AVERAGE DATA FROM EXP. #1 & #2: average of relative productivity, control 100.00; for PRODUCTIVITY EXP #2: control 2.39
Description: as §2
The cells were grown to a viable cell density of 1.0-1.5×10^6 cells/ml. Viable cell density was determined by counting the number of cells which exclude trypan blue, a staining agent. A sample of the suspension culture was diluted in a serum-free medium to a density of about 1.3×10^5 cells/ml. Aliquots of 50 ml in volume were dispensed into shake flasks and sodium butyrate added at concentrations of 0.1 mM, 0.3 mM, 0.5 mM and 1.0 mM.
as §3
NT1/19 cells were cultured as in Example 1. Varying straight chain sodium alkanoate salts (propionate, butyrate, bentanoate or hexanoate) were added to the inoculum at the concentrations indicated in Table 5.

[3] = system: CBMG human growth hormone producing cells; experiment: Production of recombinant human growth hormone by CBMG cells (immunoradiometric assay); assay type: cell-based; conditions: serum-free maintenance medium, control 1.0
Description: The molecular biology of adherent CBMG human growth hormone producing cells has been described (G. N. Pavlakis et al PNAS (USA) Vol. 80 pp 397-401 (1983)).
CBMG cells were inoculated into tissue culture flasks at a density of 0.7×10^5 cells/cm^2 in Dulbeccos Modified Eagles Minimum (DMEM) supplemented with 10% foetal calf serum.
After the cells in culture had grown to confluency, the DMEM serum supplemented medium was replaced by serum-free DMEM maintenance medium. Sodium butyrate was added at 1 mM and 5 mM after transferring the cells from serum supplemented medium to maintenance medium. Levels of human growth hormone in the culture supernatant were measured after 48 hours by immunoradiometric assay.

CCCC(=O)[O-].[Na+] [sodium butyrate]
HARVEST ANTIBODY TITER (hybridoma cell line D; 0.35 mM butyrate): 39 mg/L
HARVEST ANTIBODY TITER (hybridoma cell line D; 0.50 mM butyrate): 50 mg/L
CELL DENSITY ([1]; 0.5 mM butyrate, maintenance period 46 hours, control 10.8): 11.1 x10^5 cells/ml
CONCENTRATION OF TPA PER ML ([1]; 0.5 mM butyrate, maintenance period 46 hours): 159 arbitrary units
CELL DENSITY ([1]; 0.5 mM butyrate, maintenance period 92 hours, control 13.7): 10.3 x10^5 cells/ml
CONCENTRATION OF TPA PER ML ([1]; 0.5 mM butyrate, maintenance period 92 hours): 143 arbitrary units
CELL DENSITY ([1]; 0.5 mM butyrate, maintenance period 140 hours, control 19.1): 12.3 x10^5 cells/ml
CONCENTRATION OF TPA PER ML ([1]; 0.5 mM butyrate, maintenance period 140 hours): 186 arbitrary units
CELL DENSITY ([1]; 1.0 mM butyrate, maintenance period 46 hours, control 10.8): 11.5 x10^5 cells/ml
CONCENTRATION OF TPA PER ML ([1]; 1.0 mM butyrate, maintenance period 46 hours): 191 arbitrary units
CELL DENSITY ([1]; 1.0 mM butyrate, maintenance period 92 hours, control 13.7): 9.2 x10^5 cells/ml
CONCENTRATION OF TPA PER ML ([1]; 1.0 mM butyrate, maintenance period 92 hours): 157 arbitrary units
CELL DENSITY ([1]; 1.0 mM butyrate, maintenance period 140 hours, control 19.1): 9.4 x10^5 cells/ml
CONCENTRATION OF TPA PER ML ([1]; 1.0 mM butyrate, maintenance period 140 hours): 236 arbitrary units
CELL DENSITY ([1]; 2.5 mM butyrate, maintenance period 46 hours, control 10.8): 9.6 x10^5 cells/ml
CONCENTRATION OF TPA PER ML ([1]; 2.5 mM butyrate, maintenance period 46 hours): 945 arbitrary units
CELL DENSITY ([1]; 2.5 mM butyrate, maintenance period 92 hours, control 13.7): 7.6 x10^5 cells/ml
CONCENTRATION OF TPA PER ML ([1]; 2.5 mM butyrate, maintenance period 92 hours): 1782 arbitrary units
CELL DENSITY ([1]; 2.5 mM butyrate, maintenance period 140 hours, control 19.1): 6.6 x10^5 cells/ml
CONCENTRATION OF TPA PER ML ([1]; 2.5 mM butyrate, maintenance period 140 hours): 3468 arbitrary units
HARVEST ANTIBODY TITER (hybridoma cell line E; 0.35 mM butyrate): 56 mg/L
HARVEST ANTIBODY TITER (hybridoma cell line E; 0.50 mM butyrate): 86 mg/L
HARVEST ANTIBODY TITER (hybridoma cell line A; 0.35 mM butyrate): 35 mg/L
HARVEST ANTIBODY TITER (hybridoma cell line A; 0.50 mM butyrate): 36 mg/L
human choriogonadotropin synthesis (HeLa-cell cultures; 1 mM, Ghosh et al, Cox & McClure): induce human choriogonadotropin synthesis
cell growth (HeLa-cell cultures; butyrate treatment): inhibited cell growth
Average specific rate of antibody production ([2]; 0.5 mM sodium butyrate): 39 μg/10^6 cells/day
Maximum antibody concentration ([2]; 0.5 mM sodium butyrate): 54 µg/mL
Average specific rate of antibody production ([2]; 0.75 mM sodium butyrate): 69 μg/10^6 cells/day
Maximum antibody concentration ([2]; 0.75 mM sodium butyrate): 55 µg/mL
HARVEST ANTIBODY TITER (hybridoma cell line J; DMEM + 10% FCS, 0.50 mM butyrate, control 32): 54 mg/L
HARVEST ANTIBODY TITER (hybridoma cell line J; DMEM + 10% FCS, 0.75 mM butyrate, control 32): 55 mg/L
HARVEST ANTIBODY TITER (hybridoma cell line J; SFM, 0.50 mM butyrate, control 37): 72 mg/L
HARVEST ANTIBODY TITER (hybridoma cell line J; SFM, 1.00 mM butyrate, control 37): 102 mg/L
AVERAGE DATA FROM EXP. #1 & #2 (NT1/19 cells; 0.50 mM alkanoate): 204.39
PRODUCTIVITY EXP #2 (NT1/19 cells; 0.50 mM alkanoate): 4.7 ug antibody per 10^5 cells
PRODUCTIVITY EXP. #1 (NT1/19 cells; 0.50 mM alkanoate, control 3.30): 7.00 ug antibody per 10^5 cells
AVERAGE DATA FROM EXP. #1 & #2 (NT1/19 cells; 1.00 mM alkanoate): 368.20
PRODUCTIVITY EXP #2 (NT1/19 cells; 1.00 mM alkanoate): 8.80 ug antibody per 10^5 cells
Concentration of hGH in supernatant ([3]; 1 mM sodium butyrate): 1.1 arbitrary units/48 hours
Concentration of hGH in supernatant ([3]; 5 mM sodium butyrate): 2.3 arbitrary units/48 hours
